From patent publication US9333219B2, “Method to treat or prevent herpesvirus infections” (ALBERT EINSTEIN COLLEGE OF MEDICINE OF YESHIVA UNIVERSITY, priority 2012, dated 2016)
“Also recorded” adds a separate entry of the source.

Legend:
[1] = system: HSV-2 clinical isolates DT1 and DT2; conditions: CaSki cells pretreated
Procedure: CaSki cells were pretreated with control buffer or with miltefosine prior to Infection with an acyclovir susceptible (DT1) or acyclovir-resistant (DT2) isolate. Alternatively cells were pretreated with control buffer and acyclovir (dose) was added to the overlay media.
The HSV-2 clinical isolates 4674, DT1 (acyclovir susceptible) and DT2 (acyclovir resistant) were propagated on CaSki cells (Segarra, 2011)(Oram, 2000).
For plaque assays, cells were exposed to serial dilutions of virus for 1 h and then washed three times with phosphate buffered saline (PBS), pH 7.4, and overlaid with 199 medium containing 1% pooled human IgG. Plaques were counted by immunoassay using an anti-human IgG antibody peroxidase conjugate (Calbiochem) (Herold, 1991). In select experiments cells were pretreated with drugs that block Akt signaling or acyclovir was added to the overlay medium.

HSV-2(4674) = assay: Ganglion-epithelial cell ex vivo co-culture model
Procedure: Sacral ganglia were extracted from mice on day 7 following intravaginal infection with the indicated viral inoculum and co-cultured ex vivo with Vero cells in medium containing DMSO or 20 μM miltefosine. Culture supernatants were collected on the indicated days post-co-culture and viral growth monitored by plaque assay. Results are presented as pfu/ml (mean±sd) obtained from two independent experiments; each with sacral ganglia (d).
Sacral ganglia were removed from mice that had been vaginally infected with 5×10^4 or 5×10^5 pfu of HSV-2 on Day 7 and were then co-cultured with Vero cells in the absence or presence of 20 μM miltefosine. Media was removed on the indicated days post-co-culture and assayed for the presence of infectious virus by titering on Vero cells.
Ganglion-epithelial cell ex vivo co-cultures: Seven days pi, sacaral ganglia were excised from animals that been intravaginally infected with 5×10^4 or 5×10^5 pfu of HSV-2(4674). The tissue was co-cultured with confluent Vero cells in 60-mm Petri dishes containing DMEM supplemented with 0.1% DMSO (control) or with 20 μM of miltefosine. Culture supernatants were collected on days 2-7 post-co-culture and concentration of virus released into the media determined by plaque assay on Vero cells.

Akt = assay: Western blot of HSV-induced Akt phosphorylation (pS473-Akt1/2/3) in HaCAT cells; format: cell-based, human; conditions: HaCAT cells pretreated with drug, HSV-2(G) moi 10 pfu/cell
HSV-2 [2] = assay: HSV-2 plaque assay after pretreatment with Akt pharmacological inhibitors; format: cell-based; conditions: CaSki, SK-N-SH or HaCAT cells pretreated 15 min with drug, infected with HSV-2 1 h, plaques counted 48 h pi
Procedure: FIG. 8A-8B: Pharmacological inhibitors of Akt signaling inhibit HSV-2 plaque formation. Cells (CaSki, SK-N-SH, or HaCAT) cells were pretreated for 15 minutes with each of the indicated drugs and then challenged with serial dilutions of HSV-2. The inoculum (and drug) were removed after 1 h, and then cells were overlaid with fresh medium; plaques were counted after 48 h incubation. Results are presented as percent pfu relative to control wells (treated with 0.1% DMSO) (a). Alternatively, cells were treated for 24 h with drugs alone (0.01% nonoxynol-9 (N9) is included as a positive toxicity control) and then cell viability determined by MTT assay (b).
Akt is a potential target for HSV treatment: A series of Akt pharmacological inhibitors being developed as adjunct therapy for cancer including MK-2206, an allosteric Akt inhibitor (Yap, 2011); inhibitor VIII, which binds to the pleckstrin homology domain of Akt and prevents subsequent phosphorylation as well as translocation of Akt to the plasma membrane (Calleja, 2009); miltefosine, a drug licensed for treatment of leishmaniasis and other protozoal infections that blocks Akt phosphorylation (Ruiter, 2003), and perifosine, a structural analogue of miltefosine in Phase 3 clinical trials for treatment of several cancers (Richardson, 2012) were tested. […]

[3] = system: HSV-induced Ca2+ response; assay: Calcium kinetic measurements (fura-2 fluorometry) in CaSki cells; format: cell-based, human
Procedure: FIG. 4A-4E: Akt is required for HSV-induced calcium release and treatment with the ionophore, ionomycin, partially overcomes the block to infection in Akt-silenced cells. CaSki cells were loaded with Calcium Green 72 h post-transfection with the indicated siRNA and synchronously mock-infected or infected with purified HSV-2(G). Live images were acquired 3 min post-temperature shift to 37° C. For these xyz images, the plasma membranes are red (medium gray in grayscale), nuclei are blue (darkest gray in grayscale), and Ca^2+ is green (lighter gray in grayscale); colocalization of Ca^2+ and plasma membrane is yellow (lightest gray in grayscale). Representative images from 4 independent experiments are shown; the grid bars indicate a distance of 9.2 micrometers (a). Transfected cells were loaded with fura-2, infected with purified HSV-2 (moi 2 pfu/cell) or mock-infected and the kinetics of Ca^2+ response monitored. The mean intracellular [Ca^2+] for 5×10^4 cells over the first 30 minutes was quantified; control cells were also pretreated with wortmannin or miltefosine and then infected with HSV-2 (b). The cumulative [Ca^2+] released over 1 hour was calculated from 4 wells, each containing 5×10^4 cells (mock-infected, HSV-2 infected in the absence or presence of wortmannin or miltefosine, or following treatment of uninfected cells with 1 μM of ionomycin) (c). […]

HSV-1 K26GFP = assay: Viral entry by confocal microscopy with HSV-1 K26GFP in CaSki cells; format: cell-based; conditions: CaSki cells pretreated with drug
Procedure: (§1) FIG. 3A-3C: Silencing of Akt inhibits viral entry independent of viral binding. Transfected CaSki cells were exposed to serial dilutions of HSV-2(G) at the moi (pfu/cell) indicated for 5 h at 4° C. The cell-bound viral particles were detected by analyzing Western blots of cell lysates for gD; blots were also probed with antibodies to total Akt (to assess silencing) and β-actin (control for protein loading) (a). Cells were transfected with siControl or siAkt123 and silencing confirmed by preparing Western blots of cell lysates 48 h post-transfection and probing for total Akt and β-actin expression (b). The siRNA-transfected cells were inoculated with HSV-2(G) and nuclear extracts were prepared and analyzed for the presence of the viral tegument protein VP16 by Western blotting; blots were probed with antibodies to histone-H1 as a nuclear extract control. […]
Two independent approaches were applied to determine if Akt contributes to viral entry. […] After incubation for 45 minutes, nuclear extracts were prepared and evaluated for VP16 by Western blot; histone H1 was included as a control for the nuclear extracts (FIG. 3b). […] Viral capsids were readily detected in the majority of siControl cells (73% and 82% 1 and 4 h pi, respectively), whereas viral capsids were detected in few siAkt cells (7% and 5.5%) (FIG. 3c). […]
Confocal microscopy: Viral entry was also monitored by confocal microscopy. […]

HSV-1 and HSV-2 = conditions: prior studies (Cheshenko, 2003; 2007); cited from earlier work
HSV-2 [4] = assay: VP16 nuclear transport as surrogate of viral entry; format: cell-based; conditions: 1 μM, treated immediately prior to infection, 1 pfu/cell
Procedure: as §1
FIG. 4A-4E: Akt is required for HSV-induced calcium release and treatment with the ionophore, ionomycin, partially overcomes the block to infection in Akt-silenced cells. […] Transfected cells were loaded with fura-2, infected with purified HSV-2 (moi 2 pfu/cell) or mock-infected and the kinetics of Ca^2+ response monitored. The mean intracellular [Ca^2+] for 5×10^4 cells over the first 30 minutes was quantified; control cells were also pretreated with wortmannin or miltefosine and then infected with HSV-2 (b). […]

## CCCCCCCCCCCCCCCCOP(=O)([O-])OCC[N+](C)(C)C [miltefosine, 2-(hexadecoxy-oxido-phosphoryl)oxyethyl-trimethyl-azanium]
[1]
  activity against acyclovir susceptible and acyclovir resistant viruses in a plaque assay: active against acyclovir susceptible and acyclovir resistant viruses
HSV-2(4674); cells cultured in drug for one week
  cytotoxicity in ganglion ex vivo co-culture: No cytotoxicity was observed
HSV-2(4674); mouse sacral ganglia day 7 after vaginal HSV-2, co-cultured with Vero cells, 20 μM
  viral amplification in ganglion explant co-culture: blocked viral amplification
Akt
  viral induced phosphorylation of Akt: blocked viral induced phosphorylation of Akt
HSV-2 [2]
  inhibition of HSV infection (plaque formation, pfu relative to control wells): most potent
[3]; CaSki cells pretreated with drug (wortmannin 5 nM), HSV-2(G) moi 2 pfu/cell, first hour
  HSV-induced Ca2+ response: blocked the HSV-induced Ca^2+ response; also recorded: prevented viral induced Ca^2+ response
HSV-1 K26GFP
  viral entry (confocal imaging with GFP labeled virus): prevented viral entry

## NCCOB(c1ccccc1)c1ccccc1 [2-aminoethoxydiphenyl borate]
HSV-1 and HSV-2
  increase in [Ca2+] triggered by HSV: blocked
  viral entry: blocked

## C[C@H](CCC(=O)O)C[C@H](C)C[C@H](C)C(=O)/C=C(\O)[C@H](C)C[C@H](C)C/C=C/[C@@H](C)[C@@H](O)[C@@H](C)[C@@H](O)C[C@@H]1CC[C@@](C)([C@H]2CC[C@@](C)([C@@H](C)O)O2)O1 [ionomycin]
HSV-2 [4]
  susceptibility to HSV entry in Akt-silenced cells (nuclear VP16): partially restored the susceptibility to HSV entry
[3]; 1 μM, confocal imaging and fluorometry
  Ca2+ release from siRNA-transfected cell populations: triggered the release of a comparable amount of Ca2+
